Laboratory results reported in ChEMBL document CHEMBL3286379, “Design and synthesis of pyrimidine molecules endowed with thiazolidin-4-one as new anticancer agents” (Eur J Med Chem, 2014).

Experiments:
Format in all cases: functional
[1] = tested on: SN12C; assay: Growth inhibition of human SN12C cells after 48 hrs by sulforhodamine B assay
[2] = Growth inhibition of human UO31 cells after 48 hrs by sulforhodamine B assay; conditions: UO-31, 48 h
[3] = Growth inhibition of human HOP92 cells after 48 hrs by sulforhodamine B assay; conditions: HOP-92, 48 h
[4] = tested on: NCI-H23; assay: Growth inhibition of human NCI-H23 cells after 48 hrs by sulforhodamine B assay; conditions: NCI-H23, 48 h
[5] = tested on: SK-MEL-5; assay: Growth inhibition of human SK-MEL-5 cells after 48 hrs by sulforhodamine B assay; conditions: SK-MEL-5, 48 h
[6] = Growth inhibition of human LOXIMVI cells after 48 hrs by sulforhodamine B assay; conditions: LOX IMVI
[7] = Growth inhibition of human SF539 cells after 48 hrs by sulforhodamine B assay; conditions: SF-539, 48 h
[8] = tested on: DU-145; assay: Growth inhibition of human DU145 cells after 48 hrs by sulforhodamine B assay; conditions: DU-145, 48 h
[9] = tested on: IGROV-1; assay: Growth inhibition of human IGROV1 cells after 48 hrs by sulforhodamine B assay; conditions: IGROV-1, 48 h
[10] = tested on: 786-0; assay: Growth inhibition of human 786-0 cells after 48 hrs by sulforhodamine B assay; conditions: 786-0, 48 h
[11] = tested on: Malme-3M; assay: Growth inhibition of human MALME-3M cells after 48 hrs by sulforhodamine B assay
[12] = read-out: LC50 (the source's name)
[13] = read-out: pLC50 (the source's name) (converted)

`Nc1nc(-c2ccccc2Cl)cc(-c2ccc(Cl)cc2Cl)n1` showed a GI50 ([1]; read-out: GI50) of 13.1 µM, a CC50 [1, 12] of over 100 µM and a TGI ([1]; read-out: TGI) of over 100 µM. It also gave a GI50 ([1]; read-out: pGI50 (converted)) of 13.2 µM, a CC50 [1, 13] of over 100 µM and a TGI ([1]; read-out: pTGI) of over 100 µM. The GI50 ([2]; read-out: GI50) was 13.5 µM, the CC50 [2, 12] was over 100 µM and the TGI ([2]; read-out: TGI) was over 100 µM. The GI50 ([2]; read-out: pGI50 (converted)) was 13.5 µM, the CC50 [2, 13] was over 100 µM and the TGI ([2]; read-out: pTGI) was over 100 µM. The GI50 ([3]; read-out: GI50) was 0.527 µM, the CC50 [3, 12] was over 100 µM and the TGI ([3]; read-out: TGI) was 7.62 µM. The GI50 ([3]; read-out: pGI50 (converted)) was 0.525 µM, the CC50 [3, 13] was over 100 µM and the TGI ([3]; read-out: pTGI (converted)) was 7.59 µM. The GI50 ([4]; read-out: GI50) was 12.3 µM, the CC50 [4, 12] was over 100 µM and the TGI ([4]; read-out: TGI) was over 100 µM. It also gave a GI50 ([4]; read-out: pGI50 (converted)) of 12.3 µM, a CC50 [4, 13] of over 100 µM and a TGI ([4]; read-out: pTGI) of over 100 µM. It also gave a GI50 ([5]; read-out: GI50) of 4.78 µM, a CC50 [5, 12] of 71.1 µM and a TGI ([5]; read-out: TGI) of 20.8 µM. For the same compound, the GI50 ([5]; read-out: pGI50 (converted)) was 4.79 µM, the CC50 [5, 13] was 70.8 µM and the TGI ([5]; read-out: pTGI (converted)) was 20.9 µM. It also gave a GI50 ([6]; read-out: GI50) of 4.89 µM, a CC50 [6, 12] of over 100 µM and a TGI ([6]; read-out: TGI) of over 100 µM. The GI50 ([6]; read-out: pGI50 (converted)) was 4.9 µM, the CC50 [6, 13] was over 100 µM and the TGI ([6]; read-out: pTGI) was over 100 µM. For the same compound, the GI50 ([7]; read-out: GI50) was 7.39 µM, the CC50 [7, 12] was over 100 µM and the TGI ([7]; read-out: TGI) was 67 µM. The GI50 ([7]; read-out: pGI50 (converted)) was 7.41 µM, the CC50 [7, 13] was over 100 µM and the TGI ([7]; read-out: pTGI (converted)) was 67.6 µM. It also gave a GI50 ([8]; read-out: GI50) of 5.33 µM, a CC50 [8, 12] of over 100 µM and a TGI ([8]; read-out: TGI) of 70.1 µM. For the same compound, the GI50 ([8]; read-out: pGI50 (converted)) was 5.37 µM, the CC50 [8, 13] was over 100 µM and the TGI ([8]; read-out: pTGI (converted)) was 70.8 µM. The GI50 ([9]; read-out: GI50) was 12.3 µM, the CC50 [9, 12] was over 100 µM and the TGI ([9]; read-out: TGI) was over 100 µM. It also gave a GI50 ([9]; read-out: pGI50 (converted)) of 12.3 µM, a CC50 [9, 13] of over 100 µM and a TGI ([9]; read-out: pTGI) of over 100 µM. The GI50 ([10]; read-out: GI50) was 20.2 µM, the CC50 [10, 12] was over 100 µM and the TGI ([10]; read-out: TGI) was over 100 µM. It also gave a GI50 ([10]; read-out: pGI50 (converted)) of 20.4 µM, a CC50 [10, 13] of over 100 µM and a TGI ([10]; read-out: pTGI) of over 100 µM. The GI50 ([11]; read-out: GI50) was 17.7 µM, the CC50 [11, 12] was over 100 µM and the TGI ([11]; read-out: TGI) was over 100 µM. It also gave a GI50 ([11]; read-out: pGI50 (converted)) of 17.8 µM, a CC50 [11, 13] of over 100 µM and a TGI ([11]; read-out: pTGI) of over 100 µM.
